Values quoted from earlier work in US12472272B2, “Radiolabelled compounds for diagnosis or treatment of prostate-specific membrane antigen- expressing cancer” (PROVINCIAL HEALTH SERVICES AUTHORITY, priority 2019, dated 2025).

Experiments:
[1] = tested on: metastatic prostate cancer; conditions: cited from earlier work
tumor = conditions: Kuo et al. 2018, cited from earlier work

SMILES: O=C([O-])CN1CCN(CC(=O)[O-])CCN(CC(=O)NCC2CCC(C(=O)N[C@@H](Cc3ccc4ccccc4c3)C(=O)NCCCC[C@H](NC(=O)N[C@@H](CCC(=O)O)C(=O)O)C(=O)O)CC2)CCN(CC(=O)[O-])CC1.[177Lu+3] (stereo partly shown) [^177Lu-PSMA-617]
- complete response rate ([1]; human, in vivo): < 7%
- patients with progressive disease after treatment ([1]; human, in vivo): up to 33%
- side effects ([1]; human, in vivo): without severe side effects
- patients having >50% reduction in PSA levels ([1]; metastatic prostate cancer): 32-60%
- objective response ([1]; phase 2 Australian study, patients with measurable nodal or visceral disease): 82%
- tumor uptake (tumor; 120 h post-injection): ~8 % ID/g
- peaked tumor uptake (tumor; reported previously): ~15 % ID/g
